Experimental data from the NIST ThermoML archive (doi:10.1016/j.jct.2015.04.006).
Numbers after ± are expanded uncertainties.

Assay: mn = molality of the nth substance listed, in mol/kg
Details: 100 kPa, Liquid; for speed of sound: Frequency=3 MHz, Sing-around technique in a fixed-path interferometer; for mass density: Vibrating tube method

CCCCCCCC[N+]1(C)CCOCC1.O=S(=O)([N-]S(=O)(=O)C(F)(F)F)C(F)(F)F + C[S+](C)[O-]
Details	mass density, 298.15 K [kg/m3]	mass density, 303.15 K [kg/m3]	mass density, 308.15 K [kg/m3]	mass density, 313.15 K [kg/m3]	mass density, 318.15 K [kg/m3]	speed of sound, 298.15 K [m/s]	speed of sound, 303.15 K [m/s]	speed of sound, 308.15 K [m/s]	speed of sound, 313.15 K [m/s]	speed of sound, 318.15 K [m/s]
m1 = 0.0104	1096.19 ± 0.21	1091.17 ± 0.21	1086.16 ± 0.21	1081.14 ± 0.21	1076.13 ± 0.21	1483.5 ± 1.2	1466.6 ± 1.2	1449.8 ± 1.2	1433 ± 1.2	1416.5 ± 1.2
m1 = 0.01752	1096.81 ± 0.21	1091.79 ± 0.21	1086.78 ± 0.21	1081.77 ± 0.21	1076.76 ± 0.21	1482.7 ± 1.2	1465.8 ± 1.2	1449 ± 1.2	1432.3 ± 1.2	1415.8 ± 1.2
m1 = 0.0266	1097.59 ± 0.21	1092.58 ± 0.21	1087.57 ± 0.21	1082.56 ± 0.21	1077.56 ± 0.21	1481.7 ± 1.2	1464.8 ± 1.2	1448.1 ± 1.2	1431.4 ± 1.2	1414.9 ± 1.2
m1 = 0.03779	1098.55 ± 0.21	1093.54 ± 0.21	1088.53 ± 0.21	1083.53 ± 0.21	1078.53 ± 0.21	1480.5 ± 1.2	1463.7 ± 1.2	1446.9 ± 1.2	1430.2 ± 1.2	1413.8 ± 1.2
m1 = 0.04989	1099.57 ± 0.21	1094.57 ± 0.21	1089.57 ± 0.21	1084.57 ± 0.21	1079.57 ± 0.21	1479.2 ± 1.2	1462.4 ± 1.2	1445.7 ± 1.2	1429 ± 1.2	1412.6 ± 1.2
m1 = 0.06889	1101.17 ± 0.21	1096.17 ± 0.21	1091.17 ± 0.21	1086.18 ± 0.21	1081.19 ± 0.21	1477.2 ± 1.2	1460.4 ± 1.2	1443.7 ± 1.2	1427.1 ± 1.2	1410.8 ± 1.2
m1 = 0.08629	1102.6 ± 0.2	1097.62 ± 0.2	1092.62 ± 0.2	1087.64 ± 0.2	1082.65 ± 0.2	1475.3 ± 1.2	1458.6 ± 1.2	1441.9 ± 1.2	1425.4 ± 1.2	1409.1 ± 1.2
m1 = 0.1068	1104.29 ± 0.2	1099.3 ± 0.2	1094.32 ± 0.2	1089.34 ± 0.2	1084.36 ± 0.2	1473.2 ± 1.2	1456.5 ± 1.2	1439.9 ± 1.2	1423.4 ± 1.2	1407.1 ± 1.2
m1 = 0.1403	1106.96 ± 0.2	1101.99 ± 0.2	1097.02 ± 0.2	1092.04 ± 0.2	1087.08 ± 0.2	1469.8 ± 1.2	1453.1 ± 1.2	1436.6 ± 1.2	1420.2 ± 1.2	1404 ± 1.2
m1 = 0.1703	1109.31 ± 0.2	1104.34 ± 0.2	1099.38 ± 0.2	1094.41 ± 0.2	1089.45 ± 0.2	1466.8 ± 1.2	1450.2 ± 1.2	1433.8 ± 1.2	1417.4 ± 1.2	1401.2 ± 1.2

CCCC[N+]1(C)CCOCC1.O=S(=O)([N-]S(=O)(=O)C(F)(F)F)C(F)(F)F + C[S+](C)[O-]
Details	mass density, 298.15 K [kg/m3]	mass density, 303.15 K [kg/m3]	mass density, 308.15 K [kg/m3]	mass density, 313.15 K [kg/m3]	mass density, 318.15 K [kg/m3]	speed of sound, 298.15 K [m/s]	speed of sound, 303.15 K [m/s]	speed of sound, 308.15 K [m/s]	speed of sound, 313.15 K [m/s]	speed of sound, 318.15 K [m/s]
m1 = 0.01276	1096.62 ± 0.24	1091.6 ± 0.24	1086.58 ± 0.24	1081.57 ± 0.24	1076.55 ± 0.24	1483.5 ± 1.2	1466.6 ± 1.2	1449.8 ± 1.2	1433.1 ± 1.2	1416.5 ± 1.2
m1 = 0.01778	1097.14 ± 0.24	1092.12 ± 0.24	1087.11 ± 0.24	1082.09 ± 0.24	1077.08 ± 0.24	1483 ± 1.2	1466.2 ± 1.2	1449.3 ± 1.2	1432.6 ± 1.2	1416.1 ± 1.2
m1 = 0.02681	1098.08 ± 0.24	1093.06 ± 0.24	1088.05 ± 0.24	1083.03 ± 0.24	1078.02 ± 0.24	1482.2 ± 1.2	1465.4 ± 1.2	1448.6 ± 1.2	1431.9 ± 1.2	1415.4 ± 1.2
m1 = 0.04025	1099.46 ± 0.24	1094.44 ± 0.24	1089.43 ± 0.24	1084.42 ± 0.24	1079.41 ± 0.24	1481 ± 1.2	1464.2 ± 1.2	1447.5 ± 1.2	1430.8 ± 1.2	1414.3 ± 1.2
m1 = 0.05498	1100.96 ± 0.24	1095.95 ± 0.24	1090.94 ± 0.24	1085.93 ± 0.24	1080.93 ± 0.24	1479.7 ± 1.2	1462.9 ± 1.2	1446.2 ± 1.2	1429.6 ± 1.2	1413.1 ± 1.2
m1 = 0.06956	1102.43 ± 0.23	1097.42 ± 0.23	1092.42 ± 0.23	1087.41 ± 0.23	1082.41 ± 0.23	1478.5 ± 1.2	1461.7 ± 1.2	1445 ± 1.2	1428.4 ± 1.2	1412 ± 1.2
m1 = 0.08753	1104.23 ± 0.23	1099.22 ± 0.23	1094.22 ± 0.23	1089.22 ± 0.23	1084.22 ± 0.23	1476.9 ± 1.2	1460.1 ± 1.2	1443.5 ± 1.2	1426.9 ± 1.2	1410.6 ± 1.2
m1 = 0.1103	1106.47 ± 0.23	1101.47 ± 0.23	1096.47 ± 0.23	1091.48 ± 0.23	1086.48 ± 0.23	1475 ± 1.2	1458.2 ± 1.2	1441.6 ± 1.2	1425.1 ± 1.2	1408.8 ± 1.2
m1 = 0.1334	1108.73 ± 0.23	1103.73 ± 0.23	1098.73 ± 0.23	1093.74 ± 0.23	1088.75 ± 0.23	1472.9 ± 1.2	1456.3 ± 1.2	1439.7 ± 1.2	1423.3 ± 1.2	1407 ± 1.2
m1 = 0.1687	1112.1 ± 0.23	1107.11 ± 0.23	1102.12 ± 0.23	1097.13 ± 0.23	1092.14 ± 0.23	1470 ± 1.2	1453.4 ± 1.2	1436.9 ± 1.2	1420.5 ± 1.2	1404.4 ± 1.2

CC[N+]1(C)CCOCC1.O=S(=O)([N-]S(=O)(=O)C(F)(F)F)C(F)(F)F + C[S+](C)[O-]
Details	mass density, 298.15 K [kg/m3]	mass density, 303.15 K [kg/m3]	mass density, 308.15 K [kg/m3]	mass density, 313.15 K [kg/m3]	mass density, 318.15 K [kg/m3]	speed of sound, 298.15 K [m/s]	speed of sound, 303.15 K [m/s]	speed of sound, 308.15 K [m/s]	speed of sound, 313.15 K [m/s]	speed of sound, 318.15 K [m/s]
m1 = 0.01623	1097.17 ± 0.26	1092.15 ± 0.26	1087.13 ± 0.26	1082.12 ± 0.26	1077.11 ± 0.26	1483.4 ± 1.2	1466.5 ± 1.2	1449.7 ± 1.2	1433 ± 1.2	1416.4 ± 1.2
m1 = 0.02434	1098.11 ± 0.26	1093.09 ± 0.26	1088.07 ± 0.26	1083.06 ± 0.26	1078.05 ± 0.26	1482.8 ± 1.2	1465.9 ± 1.2	1449.1 ± 1.2	1432.4 ± 1.2	1415.9 ± 1.2
m1 = 0.03937	1099.83 ± 0.26	1094.82 ± 0.26	1089.8 ± 0.26	1084.79 ± 0.26	1079.78 ± 0.26	1481.6 ± 1.2	1464.8 ± 1.2	1448 ± 1.2	1431.3 ± 1.2	1414.9 ± 1.2
m1 = 0.04917	1100.95 ± 0.26	1095.93 ± 0.26	1090.92 ± 0.26	1085.91 ± 0.26	1080.9 ± 0.26	1480.9 ± 1.2	1464 ± 1.2	1447.3 ± 1.2	1430.7 ± 1.2	1414.2 ± 1.2
m1 = 0.063	1102.51 ± 0.26	1097.5 ± 0.26	1092.49 ± 0.26	1087.48 ± 0.26	1082.47 ± 0.26	1479.8 ± 1.2	1463 ± 1.2	1446.3 ± 1.2	1429.7 ± 1.2	1413.3 ± 1.2
m1 = 0.07874	1104.28 ± 0.26	1099.27 ± 0.26	1094.26 ± 0.25	1089.26 ± 0.25	1084.25 ± 0.25	1478.6 ± 1.2	1461.8 ± 1.2	1445.2 ± 1.2	1428.6 ± 1.2	1412.2 ± 1.2
m1 = 0.09932	1106.57 ± 0.25	1101.56 ± 0.25	1096.55 ± 0.25	1091.55 ± 0.25	1086.55 ± 0.25	1477 ± 1.2	1460.3 ± 1.2	1443.7 ± 1.2	1427.2 ± 1.2	1410.8 ± 1.2
m1 = 0.1197	1108.8 ± 0.25	1103.8 ± 0.25	1098.79 ± 0.25	1093.79 ± 0.25	1088.79 ± 0.25	1475.5 ± 1.2	1458.8 ± 1.2	1442.3 ± 1.2	1425.8 ± 1.2	1409.5 ± 1.2
m1 = 0.1515	1112.25 ± 0.25	1107.24 ± 0.25	1102.24 ± 0.25	1097.25 ± 0.25	1092.25 ± 0.25	1473.2 ± 1.2	1456.5 ± 1.2	1440 ± 1.2	1423.6 ± 1.2	1407.4 ± 1.2
